Results reported in US20190195880A1, “METHODS AND KITS FOR PREDICTING THE SENSITIVITY OF A SUBJECT SUFFERING OF RENAL CANCER TO CANCER TREATMENT” (CENTRE NATIONAL DE LA RECHERCHE SCIENTIFIQUE (CNRS), priority 2016, published 2019).
Like-named read-outs stand apart in the source and are kept apart here.

Legend:
metastatic ccRCC [1] = assay: TORAVA trial (retrospective validation cohort): survival versus plasmatic CXCL5/CXCL7; format: in vivo, human; settings: patients with CXCL7 plasma levels below 250 ng/ml
Method: (§1) All patients gave written informed consent. The SUVEGIL trial (NCT00943839) was a multicenter prospective single-arm study. […] Patient characteristics and results have been previously described (Negrier et al., 2011).
(§2) The CXCL5 and CXCL7 cut-off points (respectively 0.1 and 250 ng/ml) for PFS and OS were determined using smoothing spline curves analysis (R software, version 3.2.2). […] The predictive cut-off points determined in the SUVEGIL cohort were used for the TORAVA cohort.

metastatic ccRCC [2] = assay: Combination of SUVEGIL and TORAVA trials (sunitinib): survival versus plasmatic CXCL7; format: in vivo, human; settings: both cohorts combined
Method: as §1, §2

metastatic ccRCC [3] = tested on: metastatic ccRCC
Method: Eligible patients were at least 18 years of age and had metastatic ccRCC histologically confirmed, with the presence of measurable disease according to Response Evaluation Criteria in Solid Tumors (RECIST) v1.1.
The primary end point of the study was to evaluate the correlation between plasmatic levels of CXCL5 and CXCL7 and the overall response rate (ORR). The response was evaluated by investigators' assessment.
The secondary end points were to evaluate the correlation between plasmatic levels of CXCL5 and/or CXCL7 and overall survival (OS) and progression-free survival (PFS), censored at last follow-up for those still alive or who have not progressed.
Blood samples were centrifuged and the plasmas were collected and conserved at −80° C. Plasmatic levels of CXCL5 and CXCL7 were determined by ELISA using R&D (reference DY254) and Peprotech kits (reference 900-K40) respectively. Pure plasma or a 1/5 dilution was used for CXCL5 detection and a 1/100 dilution was used to detect CXCL7.
Spearman's correlation was performed between best response rate and quantitative level of chemokine. The CXCL5 and CXCL7 cut-off points (respectively 0.1 and 250 ng/ml) for PFS and OS were determined using smoothing spline curves analysis (R software, version 3.2.2). Kaplan Meier method was used to produce survival curves and analyses of censored data were performed using Cox models. The predictive cut-off points determined in the SUVEGIL cohort were used for the TORAVA cohort.

[4] = CXCL7 plasma levels below 250 ng/ml

CCN(CC)CCNC(=O)c1c(C)[nH]c(/C=C2\C(=O)Nc3ccc(F)cc32)c1C [sunitinib]
PFS (metastatic ccRCC [1]): 8.6 months | OS (metastatic ccRCC [2]; CXCL7 plasma levels above 250 ng/ml, p=0.00025): 34.4 months | OS (metastatic ccRCC [2]; [4]): 20.7 months | median PFS (metastatic ccRCC [2]; [4]): 8.3 months | median PFS (metastatic ccRCC [3]; SUVEGIL prospective cohort, all patients): 20.1 months | median PFS (metastatic ccRCC [3]; patients with CXCL5 plasma levels below 0.1 ng/ml): 14.9 months | median OS (metastatic ccRCC [3]; patients with CXCL7 plasma levels below 250 ng/ml): 20.5 months | PFS (metastatic ccRCC [3]; patients with CXCL7 plasma levels below 250 ng/ml at diagnosis): 15.1 months | median OS (metastatic ccRCC [3]; patients with CXCL7 plasmatic levels above 250 ng/ml, p=0.001): 34.4 months
